The source of these data is US8182527B2, “Heparin barrier coating for controlled drug release” (Cordis Corporation, priority 2001, dated 2012).

Data set [1] is described as follows: Drug concentration in liquid formulations by liquid chromatography / HPLC. Type of data set: physicochemical. On the procedure:
Table 8, shown below, summarizes the concentrations of the excipient, the co-solvents and the drug for four different liquid formulations in accordance with exemplary embodiments of the present invention.
As set forth above, a liquid formulation comprising 4 mg/ml of sirolimus may be achieved utilizing PEG 200 as the excipient and ethanol and water as the co-solvents. […] The high concentration of sirolimus is necessary to maintain an effective and high local concentration of sirolimus after delivery to the site. The liquid formulations are flowable at room temperature and are compatible with a number of delivery devices. Specifically, each of these formulations were successfully injected through an infusion catheter designated by the brand name CRESCENDO™ from Cordis Corporation, Miami, Fla., as described in more detail subsequently, and the EndoBionics Micro Syringe™ Infusion Catheter available from EndoBionics, Inc., San Leandros, Calif., as described in more detail above, in porcine studies.
In another exemplary embodiment, the liquid formulation of sirolimus comprises water and ethanol as co-solvents and Vitamin E TPGS as the excipient. The liquid formulation was created utilizing the following process. Two hundred milligrams of sirolimus and two grams of ethanol were added to a pre-weighed twenty milliliter scintillation vial. […]

The subject of data set [2] is human coronary artery smooth muscle cell proliferation. In words: In vitro cell culture study of coronary artery smooth muscle cell proliferation (trichostatin A). The class given is cell-based. The text has this:
FIG. 51 is a graph of the inhibition of coronary artery smooth muscle cells by trichostatin A in a cell culture study.

The test system of data set [3] is human coronary artery smooth muscle cell survival. In words: MTS cytotoxicity assay. The class given is cell-based. Particulars: 6.6 to 30,000.00 nanomolar tested. An excerpt: Typically, a control is utilized to determine baseline toxicity.
A general note: Tetrazolium dyes change colour on reduction, which living cells bring about.

Data set [4] deals with human coronary artery smooth muscle cells. In words: Anti-proliferative activity in synchronized cultured human coronary artery smooth muscle cells stimulated with two percent fetal bovine serum. Particulars: for effect on the anti-proliferative rapamycin dose response curve: added to cells treated with rapamycin. Type of data set: cell-based. An excerpt:
(§1) The multiple curves represent various concentrations of topotecan ranging from zero to three hundred nanomolar concentrations.
(§2) The multiple curves represent various concentrations of etoposide ranging from zero to eight hundred nanomolar concentrations.
The multiple curves represent various concentrations of Panzem® ranging from zero to 100 micromolar concentrations.

Another data set can be described thus: Cell viability assay. Type of data set: cell-based.
From the text: as §1, §2

Data set [5] relates to human coronary artery smooth muscle cells. In words: Anti-proliferative activity in non-synchronized cultured human coronary artery smooth muscle cells stimulated with two percent fetal bovine serum. The class given is cell-based. Particulars: for effect on the anti-proliferative rapamycin dose response curve: added to cells treated with rapamycin. The text has this: The multiple curves represent various concentrations of mycophenolic acid ranging from zero to one thousand nanomolar concentrations. […] This potentiation observed in cultured coronary artery smooth muscle cells preferably translates to an enhancement in anti-restenotic efficacy following vascular injury and a reduction in the required amount of either agent to achieve the desired anti-restenotic effect.
FIG. 58 illustrates, in graphical format, the anti-proliferative activity of cladribine in non-synchronized cultured human coronary artery smooth muscle cells stimulated with two percent fetal bovine serum.
The multiple curves represent various concentrations of cladribine ranging from zero to nine hundred nanomolar concentrations. […] As illustrated, the percent inhibition increases substantially as the dose of cladribine increases.

Data set [6] is classed as physicochemical. Particulars: 0.02 weight percent per total basecoat solids. An excerpt: Referring to FIG. 75, there is illustrated in graphical format, the results of the same drug screening as described above with the solution applied to a cobalt-chromium, 18 mm stent. In this test, two sets of solution samples were utilized, one with sirolimus and polymer solution containing the antioxidant and one with sirolimus and polymer solution containing no antioxidant. The antioxidant utilized was 0.02 weight percent BHT per total basecoat solids. The test was utilized to determine the percent drug content change over a time period of 0 to 12 weeks under two conditions; namely, 40° C. with 75 percent relative humidity, and ambient conditions (25° C.).

Molecules are shown by their SMILES.

In the case of `CO[C@H]1C[C@@H]2CC[C@@H](C)[C@@](O)(O2)C(=O)C(=O)N2CCCC[C@H]2C(=O)O[C@H]([C@H](C)C[C@@H]2CC[C@@H](OC(=O)C(C)(CO)CO)[C@H](OC)C2)CC(=O)[C@H](C)/C=C(\C)[C@@H](O)[C@@H](OC)C(=O)[C@H](C)C[C@H](C)/C=C/C=C/C=C/1C` [CCI-779], the “concentration in the final solution (HPLC assay)” value in data set [1] (ethanol (less than two percent), Vitamin E TPGS and water) came out at 15000 µg/mL. For the compound `CC(/C=C/C(=O)NO)=C\[C@@H](C)C(=O)c1ccc(N(C)C)cc1` [trichostatin A], the “inhibition of human coronary artery smooth muscle cell proliferation” value in data set [2] is recorded as “completely inhibit”. The IC50 (in general, the concentration that inhibits the measured activity by half) in data set [2] (human coronary artery smooth muscle cells, read-out: anti-proliferative IC50) was roughly 6 nM. For the compound `COc1cc2c(cc1O)CC[C@@H]1[C@@H]2CC[C@]2(C)[C@@H](O)CC[C@@H]12` [Panzem®, 2-methoxyestradiol], in data set [3], the “concentrations that do not reduce human coronary artery smooth muscle cell survival” value is “up to 30,000.00 nanomolar”. Also, the “effect on the anti-proliferative rapamycin dose response curve” value in data set [4] is reported as “potentiation of rapamycin by Panzem®”. Further, the anti-proliferative activity entry in data set [4] (two percent fetal bovine serum, alone) is listed as “extremely effective inhibitor of human coronary artery smooth muscle cell proliferation in vitro”. `COc1cc([C@@H]2c3cc4c(cc3[C@@H](O[C@@H]3O[C@@H]5CO[C@@H](C)O[C@H]5[C@H](O)[C@H]3O)[C@H]3COC(=O)[C@H]23)OCO4)cc(OC)c1O` [etoposide]: the “effect on the anti-proliferative rapamycin dose response curve” value in data set [4] is listed as “potentiate the anti-proliferative activity of rapamycin”. In addition, the “cytotoxicity in cell viability assay” value in “Cell viability assay” (concentrations up to ten micromolar) is “non-cytotoxic”.

As for `Nc1nc(Cl)nc2c1ncn2[C@H]1C[C@H](O)[C@@H](CO)O1` [Cladribine, 2-chlorodeoxyadenosine], the “effect on the anti-proliferative rapamycin dose response curve” value in data set [5] is given as “potentiate the anti-proliferative activity of rapamycin”. Also, in data set [5] (two percent fetal bovine serum), the “inhibition of human coronary artery smooth muscle cell proliferation” value was “completely inhibits”.

On to `Cc1cc(C(C)(C)C)c(O)c(C(C)(C)C)c1` [BHT, Butylated Hydroxytoluene], for which, in data set [6], the “effect on drug degradation on coated stent” value was “lessens drug degradation at both 8 weeks and 12 weeks under ambient conditions”. As for `CO[C@H]1C[C@@H]2CC[C@@H](C)[C@@](O)(O2)C(=O)C(=O)N2CCCC[C@H]2C(=O)O[C@H]([C@H](C)C[C@@H]2CC[C@@H](O)[C@H](OC)C2)CC(=O)[C@H](C)/C=C(\C)[C@@H](O)[C@@H](OC)C(=O)[C@H](C)C[C@H](C)/C=C/C=C/C=C/1C` [rapamycin], the “concentration relative to the solubility of sirolimus in water” value in data set [1] (4 mg/ml formulation with PEG 200, ethanol and water) is reported as “about four hundred to about one thousand times higher”.

For `COc1c(C)c2c(c(O)c1C/C=C(\C)CCC(=O)O)C(=O)OC2` [mycophenolic acid], the “effect on the anti-proliferative rapamycin dose response curve” value in data set [5] is “potentiates the anti-proliferative activity of rapamycin”. Turning to `CC[C@@]1(O)C(=O)OCc2c1cc1n(c2=O)Cc2cc3c(CN(C)C)c(O)ccc3nc2-1` [topotecan], the “effect on the anti-proliferative rapamycin dose response curve” value in data set [4] was “potentiate the anti-proliferative activity of rapamycin”. Besides, in “Cell viability assay” (concentrations up to one micromolar), the “cytotoxicity in cell viability assay” value is recorded as “non-cytotoxic”.
